# Reference: US8193364B2, “Insecticidal N-substituted (6-haloalkylpyridin-3-yl)-alkyl sulfoximines” (Dow AgroSciences, LLC., priority 2006, dated 2012)
# Read-outs that look alike come from different tables or passages of the source.
# How the values were obtained:
# Type in all cases: in vivo
# [1] = system: Cotton Aphid (Aphis gossypii); assay: Cotton aphid foliar spray assay on squash; conditions: 72 h, read-out: % Control of cotton aphid on squash (foliar spray)
# Method: Squash with fully expanded cotyledon leaves were trimmed to one cotyledon per plant and infested with cotton aphid (wingless adult and nymph) 1 day prior to chemical application. Each plant was examined before chemical application to ensure proper infestation (ca. 30-70 aphids per plant). Compounds (2 mg) were dissolved in 2 ml of acetone:methanol (1:1) solvent, forming stock solutions of 1000 ppm. The stock solutions were then diluted with a diluent consisting 80 parts of 0.025% Tween 20 in H2O and 20 parts of acetone:methanol (1:1). A hand-held Devilbiss sprayer was used to apply the test solutions until runoff to both sides of the squash cotyledon leaves. Four plants (4 replications) were used for each concentration of each compound. Reference plants (solvent check) were sprayed with the diluent only. Treated plants were held in a holding room for 3 days at approximately 23° C. and 40% RH before the number of live aphids on each plant was recorded. Insecticidal activity was measured by Corrected % Control using Abbott's correction formula and presented in Table 1: Corrected % Control=100*(X−Y)/X • where X=No. of live aphids on solvent check plants • Y=No. of live aphids on treated plants
# [2] = system: Green Peach Aphid (Myzus persicae); assay: Green peach aphid foliar spray assay on cabbage; conditions: 72 h, read-out: % Control at ppm, foliar spray, green peach aphid on cabbage
# Method: Cabbage seedlings grown in 3-inch pots, with 2-3 small (3-5 cm) true leaves, were used as test substrate. The seedlings were infested with 20-50 green peach aphids (wingless adult and nymph) 2-3 days prior to chemical application. Four seedlings were used for each treatment. Compounds (2 mg) were dissolved in 2 ml of acetone:methanol (1:1) solvent, forming stock solutions of 1000 ppm. The stock solutions were then diluted with a diluent consisting 80 parts of 0.025% Tween 20 in […] and 20 parts of acetone:methanol (1:1). A hand-held Devilbiss sprayer was used for spraying the test solutions to both sides of cabbage leaves until runoff. Reference plants (solvent check) were sprayed with the diluent only. Treated plants were held in a holding room for three days at approximately 23° C. and 40% RH prior to grading. Evaluation was conducted by counting the number of live aphids per plant under a microscope. Insecticidal activity was measured by using Abbott's correction formula: Corrected % Control=100*(X−Y)/X • where X=No. of live aphids on solvent check plants • Y=No. of live aphids on treated plants The Corrected % Control values from assays are given in Table 2.
# [3] = system: Brown Planthopper (Nilaparvata lugens); assay: Brown planthopper root-uptake systemic assay on rice
# Method: (§1) A foliar spray assay and a root-uptake systemic assay were performed on both brown planthopper and green leafhopper. Four-week-old rice seedlings were submerged in 3-cm depth of water in the bottom portion (high 5 cm, diameter 3 cm) of a 2-part glass cylinder (high 18 cm, diameter 3 cm). A metal screen was used to hold the seedlings within the bottom portion. Scotch tape was used to bind the two portions of the cylinder after setting up the seedlings. A metal cap was used to cover the cylinder. There were 4 cylinders for each treatment. The test compound was dissolved in acetone to make a 10,000 ppm stock solution. For the foliar spray assay, this stock solution was diluted with water to make 10, 2.5, 0.31, 0.08 and 0.02 ppm test solutions. A volume of 0.5 ml of a test solution or solvent blank as check was sprayed into the glass cylinder. For systemic test, the stock solution was incorporated at final test concentrations of 10, 2.5, 0.31, 0.08 and 0.02 ppm in the water in which rice seedlings were submerged. In both foliar spray and systemic tests, five laboratory-reared 3rd instar nymphs of brown planthopper or green leafhopper were introduced into each cylinder 3 hr after insecticide application. The treated test units were kept in a growth chamber with conditions set as followings: Temperature 28±0.5° C.; Relative humidity 70±0.5%; Photoperiod […].
# [4] = system: Green Leafhopper (Nephotettix sp.); assay: Green leafhopper root-uptake systemic assay on rice
# Method: as §1
# [5] = system: Brown Planthopper (Nilaparvata lugens); assay: Brown planthopper foliar spray assay on rice
# Method: as §1
# [6] = system: Green Leafhopper (Nephotettix sp.); assay: Green leafhopper foliar spray assay on rice
# Method: as §1
smiles,measurement,setting,value
"CS(=O)(Cc1ccc(C(F)F)nc1)=NC#N (centres unmarked) [Compound 7, [(6-difluoromethylpyridin-3-yl)methyl](methyl)-oxido-λ^4-sulfanylidenecyanamide]",pest or weed control at 0.049 ppm,"[1]; 0.049 ppm, 3 days after spray",< 50%
same,pest or weed control at 0.195 ppm,"[1]; 0.195 ppm, 3 days after spray",80 to 89%
same,pest or weed control at 0.781 ppm,"[1]; 0.781 ppm, 3 days after spray",90 to 100%
same,pest or weed control at 3.13 ppm,"[1]; 3.13 ppm, 3 days after spray",90 to 100%
"CC(c1ccc(C(Cl)(Cl)Cl)nc1)S(C)(=O)=NC#N (centres unmarked) [Compound 5, [1-(6-trichloromethylpyridin-3-yl)ethyl](methyl)-oxido-λ^4-sulfanylidenecyanamide]",pest or weed control at 0.781 ppm,[2],< 50%
same,pest or weed control at 3.125 ppm,[2],80 to 89%
same,pest or weed control at 0.049 ppm,[1],50 to 59%
same,pest or weed control at 0.195 ppm,[1],80 to 89%
same,pest or weed control at 0.781 ppm,[1],90 to 100%
same,pest or weed control at 3.13 ppm,[1],90 to 100%
"CC(c1ccc(C(F)(F)F)nc1)S(C)(=O)=N[N+](=O)[O-] (centres unmarked) [Compound 11, 2-trifluoromethyl-5-(1-{methyl(oxido)[oxido(oxo)hydrazono]-λ^4-sulfanyl}ethyl)pyridine]",pest or weed control at 0.195 ppm,"[2]; 0.195 ppm, 3 days after spray",70 to 79%
same,pest or weed control at 0.781 ppm,"[2]; 0.781 ppm, 3 days after spray",80 to 89%
same,pest or weed control at 3.125 ppm,"[2]; 3.125 ppm, 3 days after spray",90 to 100%
same,pest or weed control at 0.049 ppm,"[1]; 0.049 ppm, 3 days after spray",60 to 69%
same,pest or weed control at 0.195 ppm,"[1]; 0.195 ppm, 3 days after spray",60 to 69%
same,pest or weed control at 0.781 ppm,"[1]; 0.781 ppm, 3 days after spray",90 to 100%
same,pest or weed control at 3.13 ppm,"[1]; 3.13 ppm, 3 days after spray",90 to 100%
"N#CN=S1(=O)CCCC1Cc1ccc(C(F)(F)F)nc1 (centres unmarked) [Compound 10, 2-[(6-trifluoromethylpyridin-3-yl)methyl]-1-oxidotetrahydro-1H-1λ^4-thien-1-ylidenecyanamide]",pest or weed control at 0.781 ppm,[1],60 to 69%
same,pest or weed control at 3.13 ppm,[1],70 to 79%
CC(c1ccc(C(C)(F)F)nc1)S(C)(=O)=NC#N (centres unmarked) [Compound 12],pest or weed control at 0.781 ppm,"[2]; 0.781 ppm, 3 days after spray",50 to 59%
same,pest or weed control at 3.125 ppm,"[2]; 3.125 ppm, 3 days after spray",80 to 89%
same,pest or weed control at 0.781 ppm,"[1]; 0.781 ppm, 3 days after spray",90 to 100%
same,pest or weed control at 3.13 ppm,"[1]; 3.13 ppm, 3 days after spray",90 to 100%
"N#CN=S1(=O)CCCC1c1ccc(C(F)(F)F)nc1 (centres unmarked) [Compound 3, 2-(6-trifluoromethylpyridin-3-yl)-1-oxidotetrahydro-1H-1λ^4-thien-1-ylidenecyanamide]",pest or weed control at 0.195 ppm,"[2]; 0.195 ppm, 3 days after spray",< 50%
same,pest or weed control at 0.781 ppm,"[2]; 0.781 ppm, 3 days after spray",< 50%
same,pest or weed control at 3.125 ppm,"[2]; 3.125 ppm, 3 days after spray",60 to 69%
same,pest or weed control at 0.049 ppm,"[1]; 0.049 ppm, 3 days after spray",90 to 100%
same,pest or weed control at 0.195 ppm,"[1]; 0.195 ppm, 3 days after spray",90 to 100%
same,pest or weed control at 0.781 ppm,"[1]; 0.781 ppm, 3 days after spray",90 to 100%
same,pest or weed control at 3.13 ppm,"[1]; 3.13 ppm, 3 days after spray",90 to 100%
"CS(=O)(Cc1ccc(C(F)(F)F)nc1)=NC#N (centres unmarked) [Compound 1, [(6-trifluoromethylpyridin-3-yl)methyl](methyl)-oxido-λ^4-sulfanylidenecyanamide]",pest or weed control at 0.781 ppm,"[2]; 0.781 ppm, 3 days after spray",< 50%
same,pest or weed control at 3.125 ppm,"[2]; 3.125 ppm, 3 days after spray",90 to 100%
same,pest or weed control at 0.049 ppm,"[1]; 0.049 ppm, 3 days after spray",90 to 100%
same,pest or weed control at 0.195 ppm,"[1]; 0.195 ppm, 3 days after spray",90 to 100%
same,pest or weed control at 0.781 ppm,"[1]; 0.781 ppm, 3 days after spray",90 to 100%
same,pest or weed control at 3.13 ppm,"[1]; 3.13 ppm, 3 days after spray",90 to 100%
"CC(c1ccc(C(F)(F)Cl)nc1)S(C)(=O)=NC#N (centres unmarked) [Compound 4, (1-{6-[chloro(difluoro)methyl]pyridin-3-yl}ethyl)(methyl)-oxido-λ^4-sulfanylidenecyanamide]",% Control at ppm against brown planthopper,[3]; 0.02 ppm in water,F (Less than 50)
same,% Control at ppm against brown planthopper,[3]; 0.08 ppm in water,E (50-59)
same,% Control at ppm against brown planthopper,[3]; 0.31 ppm in water,A (90-100)
same,% Control at ppm against brown planthopper,[3]; 2.5 ppm in water,A (90-100)
same,% Control at ppm against brown planthopper,[3]; 10 ppm in water,A (90-100)
same,pest or weed control at 0.195 ppm,[2],80 to 89%
same,pest or weed control at 0.781 ppm,[2],90 to 100%
same,pest or weed control at 3.125 ppm,[2],90 to 100%
same,pest or weed control at 0.049 ppm,[1],90 to 100%
same,pest or weed control at 0.195 ppm,[1],90 to 100%
same,pest or weed control at 0.781 ppm,[1],90 to 100%
same,pest or weed control at 3.13 ppm,[1],90 to 100%
same,% Control at ppm against green leafhopper,[4]; 0.02 ppm in water,E (50-59)
same,% Control at ppm against green leafhopper,[4]; 0.08 ppm in water,C (70-79)
same,% Control at ppm against green leafhopper,[4]; 0.31 ppm in water,A (90-100)
same,% Control at ppm against green leafhopper,[4]; 2.5 ppm in water,A (90-100)
same,% Control at ppm against green leafhopper,[4]; 10 ppm in water,A (90-100)
same,% Control at ppm against brown planthopper,[5]; 0.02 ppm,F (Less than 50)
same,% Control at ppm against brown planthopper,[5]; 0.08 ppm,E (50-59)
same,% Control at ppm against brown planthopper,[5]; 0.31 ppm,B (80-89)
same,% Control at ppm against brown planthopper,[5]; 2.5 ppm,A (90-100)
same,% Control at ppm against brown planthopper,[5]; 10 ppm,A (90-100)
same,% Control at ppm against green leafhopper,[6]; 0.02 ppm,E (50-59)
same,% Control at ppm against green leafhopper,[6]; 0.08 ppm,B (80-89)
same,% Control at ppm against green leafhopper,[6]; 0.31 ppm,A (90-100)
same,% Control at ppm against green leafhopper,[6]; 2.5 ppm,A (90-100)
same,% Control at ppm against green leafhopper,[6]; 10 ppm,A (90-100)
"CC(c1ccc(C(F)(F)C(F)(F)F)nc1)S(C)(=O)=NC#N (centres unmarked) [Compound 9, [1-(6-pentafluoroethylpyridin-3-yl)ethyl](methyl)-oxido-λ^4-sulfanylidenecyanamide]",pest or weed control at 0.781 ppm,"[1]; 0.781 ppm, 3 days after spray",50 to 59%
same,pest or weed control at 3.13 ppm,"[1]; 3.13 ppm, 3 days after spray",90 to 100%
"CS(=O)(CCc1ccc(C(F)(F)F)nc1)=NC#N (centres unmarked) [Compound 6, [2-(6-trifluoromethylpyridin-3-yl)ethyl](methyl)-oxido-λ^4-sulfanylidenecyanamide]",pest or weed control at 0.781 ppm,"[1]; 0.781 ppm, 3 days after spray",80 to 89%
same,pest or weed control at 3.13 ppm,"[1]; 3.13 ppm, 3 days after spray",80 to 89%
"CC(c1ccc(C(F)F)nc1)S(C)(=O)=NC#N (centres unmarked) [Compound 8, [1-(6-difluoromethylpyridin-3-yl)ethyl](methyl)-oxido-λ^4-sulfanylidenecyanamide]",pest or weed control at 0.195 ppm,"[2]; 0.195 ppm, 3 days after spray",< 50%
same,pest or weed control at 0.781 ppm,"[2]; 0.781 ppm, 3 days after spray",< 50%
same,pest or weed control at 3.125 ppm,"[2]; 3.125 ppm, 3 days after spray",< 50%
same,pest or weed control at 0.049 ppm,"[1]; 0.049 ppm, 3 days after spray",70 to 79%
same,pest or weed control at 0.195 ppm,"[1]; 0.195 ppm, 3 days after spray",90 to 100%
same,pest or weed control at 0.781 ppm,"[1]; 0.781 ppm, 3 days after spray",90 to 100%
same,pest or weed control at 3.13 ppm,"[1]; 3.13 ppm, 3 days after spray",90 to 100%
